Values of other authors, collected in US12133854B2 (SLAYBACK PHARMA LLC, priority 2021, dated 2024).
≈ marks a conversion by molar mass, not a printed value. Entries after “also recorded” stand apart in the source; their conditions may differ. Where two headings read alike, the source gives them in different places.

Solubility in methanol, chloroform and acetone: very soluble | Solubility (above pH 2.5): less than 1 mg/mL | Solubility (in acid, pH 1.5): ~25 mg/mL (≈ 58.2 mM)
SMILES: CC#C[C@]1(O)CC[C@H]2[C@@H]3CCC4=CC(=O)CCC4=C3[C@@H](c3ccc(N(C)C)cc3)C[C@@]21C [Mifepristone, 11β-(4-dimethylaminophenyl)-17β-hydroxy-17α-(1-propynyl)-estra-4,9-dien-3-one]
Solubility in water: practically insoluble; also recorded: low aqueous solubility
